# From paper PMC10138389, “Study of Lipophilicity and ADME Properties of 1,9-Diazaphenothiazines with Anticancer Action” (International Journal of Molecular Sciences, 2023)
# Tests used:
# [1] = cited from earlier work; for logPTLC, 1,8-Diaza: 1,8-diazaphenothiazines; for logPTLC, 1,6-Diaza: 1,6-diazaphenothiazines; for logPTLC, 2,7-Diaza: 2,7-diazaphenothiazines; for logPTLC, 3,6-Diaza: 3,6-diazaphenothiazines
# [2] = experimental lipophilicity by RP-TLC (RM0, logPTLC); format: physicochemical; conditions: for logPTLC, 1,9-Diaza: 1,9-diazaphenothiazines, comparison table; for −b (slope of RM = RM0 + bC) / RM0 (relative lipophilicity parameter): RP-TLC; for −b (slope of RM = RM0 + bC): RP 18F254S, acetone/TRIS buffer pH 7.4; for RM0 (relative lipophilicity parameter): extrapolation to zero acetone concentration, TRIS buffer pH 7.4; for chromatographic logP: pH 7.4, RM0 converted with the calibration curve of standards I–V
# Method: In the next stage, experimental measurements of the lipophilicity coefficient were performed with the use of reversed-phase thin-layer chromatography RP-TLC.
# The experimental RP-TLC method provided the RM retention parameter (calculated from RF value measurements) using the following equation:RM = log (1/RF − 1)(1)
# Then a calibration curve was created using the same measuring conditions. […] The calibration curve was used to convert the values of the relative lipophilicity parameter RM0 of the tested hybrids into the value of the absolute lipophilicity parameter logPTLC.
# The equation of the standard curve with which it was possible to convert the relative lipophilicity parameter RM0 into the absolute parameter logPTLC is presented in Figure 2.
# The RP-TLC method was used to determine the experimental lipophilicity according to the literature. Modified silica gel RP 18F254S (Merck) was used as the stationary phase and a mixture of tris(hydroxymethyl)aminomethane (TRIS) (0.2 M, buffer pH = 7.4) with acetone as the mobile phase with the range of concentrations from 40 to 70% (v/v) in 5% increments. […] Spots were observed under UV light at λ = 254 nm. Each measurement was performed in triplicate and then the RF values were calculated.
# [3] = test system: breast cancer MDA-MB-231; set-up: method as in PMID 31307242, PMID 33807874; conditions: cited from earlier work
# [4] = test system: glioblastoma SNB-19; set-up: method as in PMID 31307242, PMID 33807874; conditions: cited from earlier work
# [5] = test system: melanoma C-32; set-up: method as in PMID 31307242, PMID 33807874; conditions: melanoma C-32 cell line; cited from earlier work
# [6] = standards; cited from earlier work
# [7] = test system: H3, TP53, CDKN1A, BCL-2, and BAX genes; set-up: method as in PMID 33807874; conditions: RT-QPCR, tested cell lines; cited from earlier work
# [8] = test system: SNB-19 cells; set-up: method as in PMID 33807874; conditions: Annexin V; cited from earlier work
structure (smiles),measurement,setting,value
"CN(C)CCCN1c2cnccc2Sc2cccnc21 [1,8-Diaza D]","logPTLC, 1,8-Diaza",[1],1.832
"CN(C)CCCN1c2cccnc2Sc2cccnc21 [1,6-Diaza D]","logPTLC, 1,6-Diaza",[1],1.156
"C#CCN1c2cccnc2Sc2cccnc21 [1,6-Diaza C]","logPTLC, 1,6-Diaza",[1],1.574
"c1cnc2c(c1)Sc1cccnc1N2 [Compound 1, 10H-1,9-diazaphenothiazine]","logPTLC, 1,9-Diaza",[2],1.476
same,−b (slope of RM = RM0 + bC),[2],0.0205
same,RM0 (relative lipophilicity parameter),[2],1.1970
same,chromatographic logP,[2],1.48
same,anticancer activity against other lines,[3],inactive
same,anticancer activity against other lines,[4],inactive
same,IC50,[5],3.83 µM
CN(C)CCCN1c2ncccc2Sc2cccnc21 [Compound 6],"logPTLC, 1,9-Diaza",[2],2.080
same,−b (slope of RM = RM0 + bC),[2],0.0170
same,RM0 (relative lipophilicity parameter),[2],1.8096
same,chromatographic logP,[2],2.08
"CN(C)CCCN1c2ccncc2Sc2ccncc21 [2,7-Diaza D]","logPTLC, 2,7-Diaza",[1],1.940
"c1ccc(CN2c3ncccc3Sc3cccnc32)cc1 [Compound 5, 10-benzyl-1,9-diazaphenothiazine]",−b (slope of RM = RM0 + bC),[2],0.0205
same,RM0 (relative lipophilicity parameter),[2],1.7877
same,chromatographic logP,[2],2.06
"c1ccc2cc3ccccc3cc2c1 [V, anthracene, reference compound]",−b (slope of RM = RM0 + bC),[2],0.044
same,RM0 (relative lipophilicity parameter),[2],3.588
same,log P TLC (logPlit.),[6],5.53 [22]
CN1CCCCC1CCN1c2ncccc2Sc2cccnc21 (stereo not shown) [Compound 11],−b (slope of RM = RM0 + bC),[2],0.0211
same,RM0 (relative lipophilicity parameter),[2],1.9988
same,chromatographic logP,[2],2.27
CN1c2ncccc2Sc2cccnc21 [Compound 2],−b (slope of RM = RM0 + bC),[2],0.0192
same,RM0 (relative lipophilicity parameter),[2],1.3850
same,chromatographic logP,[2],1.66
"C#CCN1c2cnccc2Sc2cccnc21 [1,8-Diaza C]","logPTLC, 1,8-Diaza",[1],2.186
"C#CCN1c2ccncc2Sc2ccncc21 [2,7-Diaza C]","logPTLC, 2,7-Diaza",[1],1.654
"CC(=O)c1ccc(Br)cc1 [III, 4-bromoacetophenone, reference compound]",−b (slope of RM = RM0 + bC),[2],0.033
same,RM0 (relative lipophilicity parameter),[2],2.281
same,log P TLC (logPlit.),[6],2.43 [23]
"CC(=O)Nc1ccccc1 [I, acetanilide, reference compound]",−b (slope of RM = RM0 + bC),[2],0.018
same,RM0 (relative lipophilicity parameter),[2],1.011
same,log P TLC (logPlit.),[6],1.21 [22]
c1cnc2c(c1)Sc1cccnc1N2CCN1CCCCC1 [Compound 10],−b (slope of RM = RM0 + bC),[2],0.0214
same,RM0 (relative lipophilicity parameter),[2],1.9781
same,chromatographic logP,[2],2.25
"C=CCN1c2cccnc2Sc2cccnc21 [1,6-Diaza B]","logPTLC, 1,6-Diaza",[1],3.008
"C=CCN1c2ccncc2Sc2ccncc21 [2,7-Diaza B]","logPTLC, 2,7-Diaza",[1],1.940
"C=CCN1c2ccncc2Sc2ncccc21 [3,6-Diaza B]","logPTLC, 3,6-Diaza",[1],1.329
C#CCN1c2ncccc2Sc2cccnc21 [Compound 4],expression of the CDKN1A gene,[7],enhanced
same,expression of the H3 gene,[7],reduced
same,expression of the TP53 gene,[7],reduced
same,"logPTLC, 1,9-Diaza",[2],1.747
same,−b (slope of RM = RM0 + bC),[2],0.0195
same,RM0 (relative lipophilicity parameter),[2],1.4720
same,chromatographic logP,[2],1.75
same,early and late cell apoptosis populations,[8],slight increase
"C#CCN1c2ccncc2Sc2ncccc21 [3,6-Diaza C]","logPTLC, 3,6-Diaza",[1],1.342
"c1cnc2c(c1)Nc1ncccc1S2 [1,6-Diaza A, 10H-1,6-diazaphenothiazine]","logPTLC, 1,6-Diaza",[1],2.316
C=CCN1c2ncccc2Sc2cccnc21 [Compound 3],"logPTLC, 1,9-Diaza",[2],1.682
same,−b (slope of RM = RM0 + bC),[2],0.0278
same,RM0 (relative lipophilicity parameter),[2],1.4052
same,chromatographic logP,[2],1.68
CC(CN(C)C)CN1c2ncccc2Sc2cccnc21 (stereo not shown) [Compound 8],−b (slope of RM = RM0 + bC),[2],0.0228
same,RM0 (relative lipophilicity parameter),[2],1.8961
same,chromatographic logP,[2],2.17
c1cnc2c(c1)Sc1cccnc1N2CCN1CCCC1 [Compound 9],−b (slope of RM = RM0 + bC),[2],0.0123
same,RM0 (relative lipophilicity parameter),[2],1.9434
same,chromatographic logP,[2],2.21
"c1cnc2c(c1)Nc1ccncc1S2 [3,6-Diaza A, 10H-3,6-diazaphenothiazine]","logPTLC, 3,6-Diaza",[1],0.952
"CN(C)CCCN1c2ccncc2Sc2ncccc21 [3,6-Diaza D]","logPTLC, 3,6-Diaza",[1],1.404
"c1cnc2c(c1)Sc1ccncc1N2 [1,8-Diaza A]","logPTLC, 1,8-Diaza",[1],1.759
"c1cc2c(cn1)Nc1ccncc1S2 [2,7-Diaza A]","logPTLC, 2,7-Diaza",[1],1.540
CCN(CC)CCN1c2ncccc2Sc2cccnc21 [Compound 7],expression of the CDKN1A gene,[7],enhanced
same,expression of the H3 gene,[7],reduced
same,expression of the TP53 gene,[7],reduced
same,−b (slope of RM = RM0 + bC),[2],0.0180
same,RM0 (relative lipophilicity parameter),[2],1.7934
same,chromatographic logP,[2],2.06
same,early and late cell apoptosis populations,[8],slight increase
"N.N.[Cl][Pt][Cl] [cisplatin, reference compound]",IC50,[5],13.2 µM
"C=CCN1c2cnccc2Sc2cccnc21 [1,8-Diaza B]","logPTLC, 1,8-Diaza",[1],2.313
"CC(=O)c1ccccc1 [II, acetophenone, reference compound]",−b (slope of RM = RM0 + bC),[2],0.019
"O=C(c1ccccc1)c1ccccc1 [IV, benzophenone, reference compound]",−b (slope of RM = RM0 + bC),[2],0.034
